The results in this text go back to patent EP3156398A1, “AGONISTS OF THE CHEMOKINE RECEPTOR CXCR3” (Friedrich-Alexander-Universität Erlangen-Nürnberg, priority 2015, dated 2017).

In one assay the target is T1, CXCR3-PK2 (Homo sapiens, UniProt P49682).
T1 construct: expressed in transfected cells
T1 sequence (P49682 1-368): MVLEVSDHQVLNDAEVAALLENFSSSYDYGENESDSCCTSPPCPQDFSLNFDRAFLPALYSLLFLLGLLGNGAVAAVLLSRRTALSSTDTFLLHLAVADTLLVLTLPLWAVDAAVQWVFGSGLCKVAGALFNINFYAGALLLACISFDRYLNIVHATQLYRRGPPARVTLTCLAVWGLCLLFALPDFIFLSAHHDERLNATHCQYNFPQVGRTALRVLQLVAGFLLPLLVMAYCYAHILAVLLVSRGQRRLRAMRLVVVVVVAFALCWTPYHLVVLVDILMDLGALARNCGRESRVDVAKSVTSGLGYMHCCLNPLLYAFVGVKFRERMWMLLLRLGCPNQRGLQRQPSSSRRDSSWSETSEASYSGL
Put plainly: β-arrestin 2 recruitment assay (PathHunter, DiscoveRx), CXCR3-PK2 construct. Conditions: CXCR3-PK2; for CXCR3-PK2 pEC50 ± SEM: HEK293-T cells, PathHunter. In kind it is cell-based. The procedure: β-arrestin 2 recruitment assay: The measurement of β-arrestin recruitment was performed utilizing the PathHunter assay purchased from DiscoveRx (DiscoveRx, Birmingham, U.K.) according to the manufacturer's protocol. HEK293 cells stably expressing β-gal enzyme acceptor were transiently transfected with the ProLink (PK1) tagged wildtype CXCR3 receptor using the TransIT-293 transfection reagent from Mirus (purchased from MoBiTec, Goettingen, Germany). The assay was carried out in 384-well plates containing 2000 cells in 20 µL. After incubation at 37°C (5% CO2, 95% relative humidity) overnight, various concentrations of test compounds or CXCL11 (prepared in PBS, pH 7.4, containing 0.20% BSA) were added and the incubation continued for 4 h. Detection mix was then added and incubated for further 60 min at room temperature. Chemiluminescence was determined with a microplate reader Clariostar (BMG labtech, Ortenberg, Germany).
The ability of the novel ligands according to the present invention to induce CXCR3-mediated β-arrestin 2 recruitment was investigated in the assay system PathHunter (DiscoveRx), which detects the recruitment of β-amestin 2 to the activated receptor using β-galactosidase (β-gal) enzyme fragment complementation. The inventors used two different ProLink tags, ProLink1 (PK1) and ProLink2 (PK2), of which PK2 has higher affinity for the enzyme acceptor to detect weak protein-protein interactions. The CXCR3-PK2 construct is readily able to detect the differences in the propensity of CXCL11 and CXCL10 to induce β-arrestin 2 recruitment at CXCR3. […] Table 3. Ability of the 46/VUF10661 based positive allosteric modulators to activate the CXCR3 as measured in the β-arrestin 2 recruitment assay (PathHunter, DiscoveRx).[a]
To investigate the efficacy of identified partial agonists in the assay format, the inventors used the CXCR3-PK2 construct, which is characterized by higher sensitivity to detect β-arrestin 2 recruitment. The compounds which appeared as weak partial agonists under CXCR3-PK1 conditions appeared as strong partial agonists under CXCR3-PK2 conditions with the efficacy increased up to 80% (Table 4). FAUC1036 reached the efficacy of 66%. […] Table 4. Ability of the compound 5 based positive allosteric modulators to activate the CXCR3 as measured in the β-arrestin 2 recruitment assay (PathHunter, DiscoveRx).[a]
Background: Activated receptors often draw arrestin, which recruitment assays turn into a signal.

The next assay addresses T2, human CXCR3 (isoform 1) (Homo sapiens, UniProt P49682).
T2 construct: expressed in transfected cells; host or cells: COS-7 cells, transient (pcDNA3.1+ vector, calcium phosphate)
T2 sequence (P49682 1-368): T1 sequence (P49682 1-368)
Put plainly: [125I]CXCL11 radioligand displacement assay. In kind it is binding. Here is the method:
[^125I]CXCL11 radioligand displacement assay: Oxidative iodination. The CXCL11 protein (purchased from PeproTech as the mature form of isoform 1) was labeled in-house with the ^125I isotope (purchased from Perkin-Elmer, in 10 µM NaOH, pH 8-11) using the Chloramine-T method^36. CXCL11 was dissolved in 300 mM phosphate buffer, and 0.4 mCi ^125I was added to 0.6 nmol (10 µl) of the protein. 30 µl phosphate buffer supplemented with 30 mgl^-1 Chloramine-T was added slowly over a 5 min period while stirring, and the reaction was quenched by adding 400 µl H2O with 0.1% trifluoroacetic acid (TFA). The product was purified by reverse-phase HPLC, using a C18 column and a gradient from H2O with 0.1% TFA (buffer A) to acetonitrile with 0.1% TFA (buffer B). After allowing the passage of 8 mL flow-through at 20 % buffer B, CXCL11 is eluted by increasing buffer B to 50 % over a flow-volume of 40 mL, after which any possible remains of protein are eluted by further increasing buffer B to 80 % across 10 mL flow-through. The flow-through is collected in 1 mL aliquots, and the radioligand is identified in those aliquots by gamma radiation intensity, and verified with a preliminary competitive binding assay setup.
Cell culture and transfection,. Cos-7 cells expressing human CXCR3 (isoform 1) were used for binding assays. […]
(Loss of bound radioactivity is the signal in a displacement assay; it reports binding, not function.)

Regarding `CC(C)(C)OC(=O)N[C@@H](CCCCNC(=O)[C@@H]1Cc2ccccc2CN1C(=O)CCC(=O)c1ccccc1)C(=O)NCC(c1ccccc1)c1ccccc1` [Compound 11, Tert-butyl ((S)-1-((2,2-diphenylethyl)amino)-1-oxo-6-((S)-2-(4-oxo-4-phenylbutanoyl)-1,2,3,4-tertahydroisoquinoline-3-carboxamido)hexan-2-yl)carbamate], the “CXCR3-PK2 efficacy (%)” value on CXCR3-PK2 (% of CXCL11 mediated effect, listed as 11/FAUC103 6) is recorded as 66±8%. Further, at CXCR3-PK2 (% of CXCL11 mediated effect, read-out: CXCR3-PK2 efficacy (%) (converted)), the Emax is 66%. For the same compound, the “CXCR3-PK2 pEC50 ± SEM” value on CXCR3-PK2 (listed as 11/FAUC103 6) stood at 6.58±0.30; at CXCR3-PK2 (listed as FAUC1036), 6.64 ± 0.30. Moreover, the “effect on the binding affinity of CXCL11 on CXCR3” value at human CXCR3 (isoform 1) is on record as “no effect on the binding affinity of CXCL11 on CXCR3”.
